Measurements: patent US6028092A, “Salts of N-(4-Oxo-2-(1H-tetrazoyl-5-yl)-4H-1-benzopyran-8-yl)-4-(4-phenylbutoxy)b enzamide” (SmithKline Beecham p.l.c, priority 1995, dated 2000)
Converted amounts (≈) assume the structure as drawn. Where two headings read alike, the source gives them in different places.

Columns and labels:
[1] = Solubility of Compound 1 salts in water, ethanol and PEG 400; type: physicochemical
[2] = rat, in vivo, po
[3] = In-situ solubilisation: solubility of Compound 1 in 50% acetate solution (0.1M) / 50% ethanol; type: physicochemical
Procedure: Although the salts of Compound 1 are freely soluble in solvents such as ethanol further improvements have been observed when the salts are prepared in situ.
Solubility of Compound 1 in 50% Acetate Solution (0.1M) and 50%
(§1) In the presence of excess acetate the salts formed in situ are freely soluble even in an aqueous alcoholic medium with a water content of 50%. With lower water contents or in the absence of water the solubility can be improved further. For example when PEG 200 (30 mL) sodium acetate (2.5 g) and Compound 1 (7.4 g) were triturated in a mortar and pestle the sodium salt of Compound 1 formed in-situ was solubilised to a concentration greater than 200 g/l.

[4] = Solubility of Compound 1 in 50% solvent systems/50% sodium phosphate (pH7) at different molarities; type: physicochemical
Procedure: The scope of in-situ solubilisation in terms of solvent type and buffer concentration can be seen in Table 4. In these experiments the sodium salt of Compound 1 was prepared through the presence of varying concentrations of sodium phosphate buffer solution with 50% of the test solvent.
Solubility of Compound 1 in 50% solvent systems/50% sodium
phosphate (pH7) at different molarities
No value was obtained for those N/T samples because the solvents were immiscible with the buffer solution at those concentrations.

[5] = Solubility of Compound 1 in 50% 0.1M salt solution (pH7)/50% absolute alcohol; type: physicochemical
Description: Solubility of Compound 1 in 50% 0.1M salt solution (pH7)/50%

[6] = In-situ solubilisation of sodium salt of Compound 1 in PEG 200 by trituration with sodium acetate; type: physicochemical; details: organic solvent or mixture; PEG 200 (30 mL), sodium acetate (2.5 g), Compound 1 (7.4 g); read-out: concentration solubilised in-situ
Procedure: as §1

O=C(Nc1cccc2c(=O)cc(-c3nnn[nH]3)oc12)c1ccc(OCCCCc2ccccc2)cc1 [Ammonium]
Solubility in PEG 400 ([1]; PEG 400): > 10 g/L
Solubility in ethanol [1]: 9.33 g/L
Solubility in water ([1]; water): 0.28 g/L
absorption, in words [2]: reasonably well absorbed
increase of absolute bioavailability relative to the parent acid [2]: approximately tenfold
AUC)-t or infinity ([2]; 20 mg/kg): 81490.5 ± 23670.3 µg·min/mL
BA ([2]; 20 mg/kg): 7.15 ± 2.08%
CMAX ([2]; 20 mg/kg): 548.5 ± 165.7 ng/mL
TMAX ([2]; 20 mg/kg): 53.1 ± 29.8 min
AUC)-t or infinity ([2]; 80 mg/kg): 66722.9 ± 16472.6
BA ([2]; 80 mg/kg): 1.46 ± 0.36%
CMAX ([2]; 80 mg/kg): 264.5 ± 64.06 ng/mL
TMAX ([2]; 80 mg/kg): 150.5 ± 34.1 min
bioavailability (in vivo; rat, in vivo, po, 20 mg/kg, absolute bioavailability): ~7%

O=C(Nc1cccc2c(=O)cc(-c3nnn[nH]3)oc12)c1ccc(OCCCCc2ccccc2)cc1 [Calcium]
Solubility in PEG 400 ([1]; PEG 400): 8.42 g/L
Solubility in ethanol [1]: 0.36 g/L

O=C(Nc1cccc2c(=O)cc(-c3nnn[nH]3)oc12)c1ccc(OCCCCc2ccccc2)cc1 [Compound 1, N-[4-Oxo-2-(1H-tetrazol-5-yl)-4H-1-benzopyran-8-yl]-4-(4-phenylbutoxy)benzamide]
solubility ([1]; water, aqueous, free acid, read-out: aqueous solubility of Compound 1 free acid): < 10 µg/mL
solubility ([3]; 0.1m ammonium acetate/ethanol 50:50, organic solvent or mixture, ammonium acetate 0.1M 50% / ethanol 50%): 11.5 mg/mL (≈ 23.9 mM)
solubility ([3]; 0.1m calcium acetate/ethanol 50:50, organic solvent or mixture, calcium acetate 0.1M 50% / ethanol 50%): 0.4 mg/mL (≈ 0.831 mM)
solubility ([3]; 0.1m potassium acetate/ethanol 50:50, organic solvent or mixture, potassium acetate 0.1M 50% / ethanol 50%): 12.2 mg/mL (≈ 25.3 mM)
solubility ([3]; 0.1m sodium acetate/ethanol 50:50, organic solvent or mixture, sodium acetate 0.1M 50% / ethanol 50%): 11 mg/mL (≈ 22.8 mM)
solubility ([4]; 50% ethanol/0.1m sodium phosphate, pH 7, organic solvent or mixture, 50% ethanol / 50% sodium phosphate pH7, 0.1M): 16.2 mg/mL (≈ 33.6 mM)
solubility ([4]; 50% glycerol/0.1m sodium phosphate, pH 7, organic solvent or mixture, 50% glycerol / 50% sodium phosphate pH7, 0.1M): 0.2 mg/mL (≈ 0.415 mM)
solubility ([4]; 50% glycerol/0.25m sodium phosphate, pH 7, organic solvent or mixture, 50% glycerol / 50% sodium phosphate pH7, 0.25M): 0.05 mg/mL (≈ 0.104 mM)
solubility ([4]; 50% glycerol/0.5m sodium phosphate, pH 7, organic solvent or mixture, 50% glycerol / 50% sodium phosphate pH7, 0.5M): 0.04 mg/mL (≈ 0.0831 mM)
solubility ([4]; 50% glycofurol/0.1m sodium phosphate, pH 7, 50% glycofurol / 50% sodium phosphate pH7, 0.1M): 19.5 mg/mL (≈ 40.5 mM)
solubility ([4]; 50% methanol/0.1m sodium phosphate, pH 7, organic solvent or mixture, 50% methanol / 50% sodium phosphate pH7, 0.1M): 2.2 mg/mL (≈ 4.57 mM)
solubility ([4]; 50% methanol/0.25m sodium phosphate, pH 7, organic solvent or mixture, 50% methanol / 50% sodium phosphate pH7, 0.25M): 1.1 mg/mL (≈ 2.28 mM)
solubility ([4]; 50% methanol/0.5m sodium phosphate, pH 7, organic solvent or mixture, 50% methanol / 50% sodium phosphate pH7, 0.5M): 0.9 mg/mL (≈ 1.87 mM)
solubility ([4]; 50% n-propanol/0.1m sodium phosphate, pH 7, organic solvent or mixture, 50% n-propanol / 50% sodium phosphate pH7, 0.1M): 18 mg/mL (≈ 37.4 mM)
solubility ([4]; 50% n-propanol/0.25m sodium phosphate, pH 7, organic solvent or mixture, 50% n-propanol / 50% sodium phosphate pH7, 0.25M): 43.1 mg/mL (≈ 89.5 mM)
solubility ([4]; 50% n-propanol/0.5m sodium phosphate, pH 7, organic solvent or mixture, 50% n-propanol / 50% sodium phosphate pH7, 0.5M): 56.3 mg/mL (≈ 117 mM)
solubility ([4]; 50% peg 400/0.1m sodium phosphate, pH 7, organic solvent or mixture, 50% PEG 400 / 50% sodium phosphate pH7, 0.1M): 20.5 mg/mL (≈ 42.6 mM)
solubility ([4]; 50% peg 400/0.25m sodium phosphate, pH 7, organic solvent or mixture, 50% PEG 400 / 50% sodium phosphate pH7, 0.25M): 23.7 mg/mL (≈ 49.2 mM)
solubility ([4]; 50% peg 400/0.5m sodium phosphate, pH 7, organic solvent or mixture, 50% PEG 400 / 50% sodium phosphate pH7, 0.5M): 26.6 mg/mL (≈ 55.2 mM)
solubility ([4]; 50% propylene glycol/0.1m sodium phosphate, pH 7, organic solvent or mixture, 50% propylene glycol / 50% sodium phosphate pH7, 0.1M): 1.7 mg/mL (≈ 3.53 mM)
solubility ([4]; 50% propylene glycol/0.25m sodium phosphate, pH 7, organic solvent or mixture, 50% propylene glycol / 50% sodium phosphate pH7, 0.25M): 0.7 mg/mL (≈ 1.45 mM)
solubility ([4]; 50% propylene glycol/0.5m sodium phosphate, pH 7, organic solvent or mixture, 50% propylene glycol / 50% sodium phosphate pH7, 0.5M): 0.5 mg/mL (≈ 1.04 mM)
solubility ([4]; 50% thf/0.1m sodium phosphate, pH 7, organic solvent or mixture, 50% THF / 50% sodium phosphate pH7, 0.1M): 22.3 mg/mL (≈ 46.3 mM)
solubility ([4]; 50% thf/0.25m sodium phosphate, pH 7, organic solvent or mixture, 50% THF / 50% sodium phosphate pH7, 0.25M): 49.3 mg/mL (≈ 102 mM)
solubility ([4]; 50% thf/0.5m sodium phosphate, pH 7, organic solvent or mixture, 50% THF / 50% sodium phosphate pH7, 0.5M): 101 mg/mL (≈ 210 mM)
TMAX ([2]; 80 mg/kg): 22.6 ± 14.9 min
half-life (in vivo; rat, in vivo, iv, 3 mg/kg): 23.2 ± 28.4 min
AUC (in vivo; rat, in vivo, iv, 3 mg/kg, AUC)-t or infinity): 2850 µg·h/mL
AUC (in vivo; rat, in vivo, po, 80 mg/kg, AUC)-t or infinity): 607 µg·h/mL
bioavailability (in vivo; rat, in vivo, po, 80 mg/kg, BA): 0.8 ± 0.16%
CMAX (in vivo; rat, in vivo, po, 80 mg/kg, CMAX): 207 ± 57.2 ng/mL

O=C(Nc1cccc2c(=O)cc(-c3nnn[nH]3)oc12)c1ccc(OCCCCc2ccccc2)cc1 [Ethylenediamine]
solubility [5]: 1.7 mg/mL

O=C(Nc1cccc2c(=O)cc(-c3nnn[nH]3)oc12)c1ccc(OCCCCc2ccccc2)cc1 [Meglumine]
Solubility in PEG 400 ([1]; PEG 400): 9.20 g/L
Solubility in ethanol [1]: 3.06 g/L
Solubility in water ([1]; water): 0.34 g/L
absorption, in words [2]: evidence of enhanced absorption
increase of absolute bioavailability relative to the parent acid [2]: approximately fourfold
AUC)-t or infinity ([2]; 20 mg/kg): 35290.4 ± 11719.1
BA ([2]; 20 mg/kg): 3.09 ± 1.03%
CMAX ([2]; 20 mg/kg): 207.7 ± 112.2 ng/mL
AUC)-t or infinity ([2]; 80 mg/kg): 59012.7 ± 17096.3 µg·min/mL
BA ([2]; 80 mg/kg): 1.29 ± 0.37%
CMAX ([2]; 80 mg/kg): 263.0 ± 139.5 ng/mL
TMAX ([2]; 80 mg/kg): 97.5 ± 66.2 min
TMAX (in vivo; rat, in vivo, po, 20 mg/kg, TMAX): 53.1 min

O=C(Nc1cccc2c(=O)cc(-c3nnn[nH]3)oc12)c1ccc(OCCCCc2ccccc2)cc1 [Sodium]
Solubility in ethanol [1]: > 10 g/L
solubility ([1]; peg 400, organic solvent or mixture, PEG 400, read-out: Solubility in PEG 400): > 10000 µg/mL
Solubility in water ([1]; water): 0.04 g/L
solubility [6]: > 200 mg/mL

O=C(Nc1cccc2c(=O)cc(-c3nnn[nH]3)oc12)c1ccc(OCCCCc2ccccc2)cc1 [Tris]
solubility ([5]; 50% salt solution/50% ethanol, pH 7, organic solvent or mixture, read-out: Solubility): 1.6 mg/mL
